What was measured:
Orexin receptor type 2 = molecular target: T1, Orexin receptor type 2 (Homo sapiens, UniProt O43614); experiment: (§1) FLIPR Ca2+ Flux Assay: All reagents were from GIBCO-Invitrogen Corp. The seeded plates are incubated overnight at 37° C. and 5% CO2. Ala-6,12 human orexin-A as the agonist is prepared as a 1 mM stock solution in 1% bovine serum albumin (BSA) and diluted in assay buffer (HBSS containing 20 mM HEPES, 0.1% BSA and 2.5 mM probenecid, pH7.4) for use in the assay at a final concentration of 70pM. Test compounds are prepared as 10 mM stock solution in DMSO, then diluted in 384-well plates, first in DMSO, then assay buffer. On the day of the assay, cells are washed 3 times with 100 μl assay buffer and then incubated for 60 min (37° C., 5% CO2) in 60 μl assay buffer containing 1 μM Fluo-4AM ester, 0.02% pluronic acid, and 1% BSA. The dye loading solution is then aspirated and cells are washed 3 times with 100 μl assay buffer. 30 μl of that same buffer is left in each well. Within the Fluorescent Imaging Plate Reader (FLIPR, Molecular Devices), test compounds are added to the plate in a volume of 25 μl, incubated for 5 min and finally 25 μl of agonist is added. Fluorescence is measured for each well at 1 second intervals for 5 minutes and the height of each fluorescence peak is compared to the height of the fluorescence peak induced by 70 pM Ala-6,12 orexin-A with buffer in place of antagonist. For each antagonist, IC50 value (the concentration of compound needed to inhibit 50% of the agonist response) is determined. Alternatively, compound potency can be assessed by a radioligand binding assay (described in Bergman et. al. Bioorg. Med. Chem. Lett. 2008, 18, 1425-1430) in which the inhibition constant (Ki) is determined in membranes prepared from CHO cells expressing either the OX1 or OX2 receptor. The intrinsic orexin receptor antagonist activity of a compound which may be used in the present invention may be determined by these assays.
T1 sequence (O43614 whole entry): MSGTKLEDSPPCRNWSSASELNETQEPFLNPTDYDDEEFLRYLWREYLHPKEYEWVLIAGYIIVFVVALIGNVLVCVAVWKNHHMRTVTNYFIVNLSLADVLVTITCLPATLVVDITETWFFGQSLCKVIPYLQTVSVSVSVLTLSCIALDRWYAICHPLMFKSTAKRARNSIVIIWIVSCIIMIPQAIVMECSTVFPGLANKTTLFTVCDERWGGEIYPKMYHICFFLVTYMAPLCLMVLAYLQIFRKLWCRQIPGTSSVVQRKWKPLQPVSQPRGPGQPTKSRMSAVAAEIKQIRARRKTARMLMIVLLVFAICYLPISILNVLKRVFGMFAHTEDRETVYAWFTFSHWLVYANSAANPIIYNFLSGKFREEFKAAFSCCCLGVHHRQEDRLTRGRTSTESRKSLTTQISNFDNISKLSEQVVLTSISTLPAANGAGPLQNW

[1] = molecular target: T2, Orexin/Hypocretin receptor type 1 (Homo sapiens, UniProt O43613); experiment: as §1
T2 sequence (O43613 whole entry): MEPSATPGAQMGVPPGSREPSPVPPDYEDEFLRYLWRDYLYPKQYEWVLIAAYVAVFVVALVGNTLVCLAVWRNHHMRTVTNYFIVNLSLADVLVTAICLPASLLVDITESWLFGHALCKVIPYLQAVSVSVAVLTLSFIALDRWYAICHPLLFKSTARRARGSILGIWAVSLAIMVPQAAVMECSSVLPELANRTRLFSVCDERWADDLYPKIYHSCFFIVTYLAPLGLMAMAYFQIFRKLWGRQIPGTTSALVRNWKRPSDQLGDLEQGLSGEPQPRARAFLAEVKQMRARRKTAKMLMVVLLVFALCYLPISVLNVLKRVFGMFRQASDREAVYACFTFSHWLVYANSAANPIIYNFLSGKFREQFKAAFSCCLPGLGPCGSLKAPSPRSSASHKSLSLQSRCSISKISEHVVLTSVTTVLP

| Structure (SMILES) | IC50 (Orexin receptor type 2) [nM] | IC50 [1] [nM] |
| --- | --- | --- |
| C[C@@H]1C[C@@H](Nc2cc(OCC(F)F)ccn2)CN1C(=O)c1ccccc1C1(C#N)CCC1 | 58.3 | 4040 |
| C[C@@H]1C[C@@H](Nc2cc(Br)ccn2)CN1C(=O)c1ccccc1-n1nccn1 | 11.2 | 1150 |
